Measured values as given in US11690379B2, “Aqueous insecticidal composition and methods of use thereof” (priority 2020, dated 2023).

How the values were obtained:
Format in all cases: in vivo
[1] = test system: silverleaf whitefly (Bemisia tabaci); assay: Foliar spray bioefficacy, first assay (3 applications); conditions: for # of Individuals per Leaf: Adults, 1st Appl. / # of Individuals per Leaf: Eggs, 1st Appl. / # of Individuals per Leaf: Nymphs, 1st Appl.: 7 days after first application; for # of Individuals per Leaf: Adults, 2nd Appl. / # of Individuals per Leaf: Eggs, 2nd Appl. / # of Individuals per Leaf: Nymphs, 2nd Appl.: 7 days after second application; for # of Individuals per Leaf: Adults, 3rd Appl. / # of Individuals per Leaf: Eggs, 3rd Appl. / # of Individuals per Leaf: Nymphs, 3rd Appl.: 8 days after third application
Procedure: A bioefficacy assay utilizing a foliar spray containing Spirotetramat and pyriproxyfen was conducted on the silverleaf whitefly (Bemisia tabaci) on tomatoes and bell peppers. […] Control was recorded 7 days after first application, 7 days after second application and 8 days after third application. Application rates and results of this assay can be found in Table 8, below.

[2] = test system: silverleaf whitefly (Bemisia tabaci); assay: Foliar spray bioefficacy, second assay (2 applications); conditions: recorded 8 days after second application
Procedure: A bioefficacy assay utilizing a foliar spray containing Spirotetramat and pyriproxyfen was conducted on the silverleaf whitefly (Bemisia tabaci) on tomatoes and bell peppers. […] Control was recorded 7 days after first application, 7 days after second application and 8 days after third application. Application rates and results of this assay can be found in Table 8, below. […] Control was recorded 8 days after second application. Application rates and results of this assay can be found in Table 9, below.

[3] = test system: silverleaf whitefly (Bemisia tabaci); assay: Foliar spray bioefficacy, third assay (3 applications); conditions: for # of Individuals per Leaf: Adults, 1st Appl. / # of Individuals per Leaf: Eggs, 1st Appl. / # of Individuals per Leaf: Nymphs, 1st Appl.: 7 days after first application; for # of Individuals per Leaf: Adults, 2nd Appl. / # of Individuals per Leaf: Eggs, 2nd Appl. / # of Individuals per Leaf: Nymphs, 2nd Appl.: 7 days after second application; for # of Individuals per Leaf: Adults, 3rd Appl. / # of Individuals per Leaf: Eggs, 3rd Appl. / # of Individuals per Leaf: Nymphs, 3rd Appl.: 8 days after third application
Procedure: A bioefficacy assay utilizing a foliar spray containing Spirotetramat and pyriproxyfen was conducted on the silverleaf whitefly (Bemisia tabaci) on tomatoes and bell peppers. […] Control was recorded 7 days after first application, 7 days after second application and 8 days after third application. Application rates and results of this assay can be found in Table 8, below. […] Control was recorded 7 days after first application, 7 days after second application and 8 days after third application. Application rates and results of this assay can be found in Table 10, below.

[4] = test system: vine mealybug (Pseudococcus maritimus); assay: Foliar spray bioefficacy on table grapes; conditions: Spirotetramat 131 g/HA
Procedure: A bioefficacy assay utilizing a foliar spray containing Spirotetramat and pyriproxyfen was conducted on the vine mealybug (Pseudococcus maritimus) on table grapes. Spirotetramat and pyriproxyfen were applied concurrently as a foliar spray and spirotetramat was also applied individually. Application rates and results of this assay can be found in Table 11, below.

[5] = test system: Asian citrus psyllid (Diaphorina citri); assay: Foliar spray bioefficacy on Valencia oranges
Procedure: A bioefficacy assay utilizing a foliar spray containing Spirotetramat and pyriproxyfen was conducted on the Asian citrus psyllid (Diaphorina citri) on Valencia oranges. Spirotetramat and pyriproxyfen were applied concurrently and separately as a foliar spray. Application rates and results of this assay can be found in Table 12, below.

SMILES: CCOC(=O)OC1=C(c2cc(C)ccc2C)C(=O)N[C@]12CC[C@@H](OC)CC2 [Spirotetramat, cis-3-(2,5-dimethylphenyl)-8-methoxy-2-oxo-1-azaspiro[4.5]dec-3-en-4-ylethyl carbonate]
- # of Individuals per Leaf: Adults, 1st Appl. ([1]; Spirotetramat 87.6 g/HA): 3.3 per Leaf
- # of Individuals per Leaf: Eggs, 1st Appl. ([1]; Spirotetramat 87.6 g/HA): 6.5 per Leaf
- # of Individuals per Leaf: Nymphs, 1st Appl. ([1]; Spirotetramat 87.6 g/HA): 17.8 per Leaf
- # of Individuals per Leaf: Adults, 2nd Appl. ([1]; Spirotetramat 87.6 g/HA): 2.0 per Leaf
- # of Individuals per Leaf: Eggs, 2nd Appl. ([1]; Spirotetramat 87.6 g/HA): 13.8 per Leaf
- # of Individuals per Leaf: Nymphs, 2nd Appl. ([1]; Spirotetramat 87.6 g/HA): 30.5 per Leaf
- # of Individuals per Leaf: Adults, 3rd Appl. ([1]; Spirotetramat 87.6 g/HA): 2.0 per Leaf
- # of Individuals per Leaf: Eggs, 3rd Appl. ([1]; Spirotetramat 87.6 g/HA): 11.0 per Leaf
- # of Individuals per Leaf: Nymphs, 3rd Appl. ([1]; Spirotetramat 87.6 g/HA): 16.8 per Leaf
- # of Individuals per Leaf: Adults, 1st Appl. ([2]; Spirotetramat 87.6 g/HA): 2.6 per Leaf
- # of Individuals per Leaf: Eggs, 1st Appl. ([2]; Spirotetramat 87.6 g/HA): 12.7 per Leaf
- # of Individuals per Leaf: Nymphs, 1st Appl. ([2]; Spirotetramat 87.6 g/HA): 33.2 per Leaf
- # of Individuals per Leaf: Adults, 1st Appl. ([3]; Spirotetramat 87.6 g/HA): 3.3 per Leaf
- # of Individuals per Leaf: Eggs, 1st Appl. ([3]; Spirotetramat 87.6 g/HA): 6.5 per Leaf
- # of Individuals per Leaf: Nymphs, 1st Appl. ([3]; Spirotetramat 87.6 g/HA): 17.8 per Leaf
- # of Individuals per Leaf: Adults, 2nd Appl. ([3]; Spirotetramat 87.6 g/HA): 2.0 per Leaf
- # of Individuals per Leaf: Eggs, 2nd Appl. ([3]; Spirotetramat 87.6 g/HA): 13.8 per Leaf
- # of Individuals per Leaf: Nymphs, 2nd Appl. ([3]; Spirotetramat 87.6 g/HA): 30.5 per Leaf
- # of Individuals per Leaf: Adults, 3rd Appl. ([3]; Spirotetramat 87.6 g/HA): 2.0 per Leaf
- # of Individuals per Leaf: Eggs, 3rd Appl. ([3]; Spirotetramat 87.6 g/HA): 11.0 per Leaf
- # of Individuals per Leaf: Nymphs, 3rd Appl. ([3]; Spirotetramat 87.6 g/HA): 16.8 per Leaf
- % bunches infested [4]: 6.8%
- # of Nymphs ([5]; Spirotetramat 163.7 g/HA): 8.6

SMILES: CC(COc1ccc(Oc2ccccc2)cc1)Oc1ccccn1 (racemic) [Pyriproxyfen, 4-Phenoxyphenyl (R/S)-2-(2-pyridyloxy)propyl ether]
- # of Individuals per Leaf: Adults, 1st Appl. ([1]; Pyriproxyfen 75.3 g/HA): 0.5 per Leaf
- # of Individuals per Leaf: Eggs, 1st Appl. ([1]; Pyriproxyfen 75.3 g/HA): 0.5 per Leaf
- # of Individuals per Leaf: Nymphs, 1st Appl. ([1]; Pyriproxyfen 75.3 g/HA): 0.5 per Leaf
- # of Individuals per Leaf: Adults, 2nd Appl. ([1]; Pyriproxyfen 75.3 g/HA): 1.5 per Leaf
- # of Individuals per Leaf: Eggs, 2nd Appl. ([1]; Pyriproxyfen 75.3 g/HA): 2.3 per Leaf
- # of Individuals per Leaf: Nymphs, 2nd Appl. ([1]; Pyriproxyfen 75.3 g/HA): 0.8 per Leaf
- # of Individuals per Leaf: Adults, 3rd Appl. ([1]; Pyriproxyfen 75.3 g/HA): 1.0 per Leaf
- # of Individuals per Leaf: Eggs, 3rd Appl. ([1]; Pyriproxyfen 75.3 g/HA): 2.0 per Leaf
- # of Individuals per Leaf: Nymphs, 3rd Appl. ([1]; Pyriproxyfen 75.3 g/HA): 0.8 per Leaf
- # of Individuals per Leaf: Adults, 1st Appl. ([2]; Pyriproxyfen 75.3 g/HA): 1.6 per Leaf
- # of Individuals per Leaf: Eggs, 1st Appl. ([2]; Pyriproxyfen 75.3 g/HA): 27.4 per Leaf
- # of Individuals per Leaf: Nymphs, 1st Appl. ([2]; Pyriproxyfen 75.3 g/HA): 65.9 per Leaf
- # of Individuals per Leaf: Adults, 1st Appl. ([3]; Pyriproxyfen 75.3 g/HA): 0.5 per Leaf
- # of Individuals per Leaf: Eggs, 1st Appl. ([3]; Pyriproxyfen 75.3 g/HA): 0.5 per Leaf
- # of Individuals per Leaf: Nymphs, 1st Appl. ([3]; Pyriproxyfen 75.3 g/HA): 0.5 per Leaf
- # of Individuals per Leaf: Adults, 2nd Appl. ([3]; Pyriproxyfen 75.3 g/HA): 1.5 per Leaf
- # of Individuals per Leaf: Eggs, 2nd Appl. ([3]; Pyriproxyfen 75.3 g/HA): 2.3 per Leaf
- # of Individuals per Leaf: Nymphs, 2nd Appl. ([3]; Pyriproxyfen 75.3 g/HA): 0.8 per Leaf
- # of Individuals per Leaf: Adults, 3rd Appl. ([3]; Pyriproxyfen 75.3 g/HA): 1.0 per Leaf
- # of Individuals per Leaf: Eggs, 3rd Appl. ([3]; Pyriproxyfen 75.3 g/HA): 2.0 per Leaf
- # of Individuals per Leaf: Nymphs, 3rd Appl. ([3]; Pyriproxyfen 75.3 g/HA): 0.8 per Leaf
- # of Nymphs ([5]; Pyriproxyfen 127.9 g/HA): 14.1
